What was measured:
Rat pharmacokinetics = type: in vivo, SD rats; parameters: AUC: concentration or dose not given beside the values; settings: for AUC / Cmax / Tmax / clearance / half-life / Vd: male, SD, plasma; for Vd: read-out: Vss
Text: (§1) Example 53: Investigation of the Pharmacokinetic Characteristics of the Compounds of the Present Invention
(§2) SD rats: male, 180-250 g, purchased from Guangdong Medical Laboratory Animal Center. Cynomolgus monkey: male, 4-6 kg, purchased from Guangzhou Chunsheng Biological Research Institute Co., Ltd. Beagle dog: male, 8-12 kg, developed in Kanglong Chemical (Ningbo) New Drug Technology Co., Ltd.
(§3) Reagents: DMSO (dimethyl sulfoxide), PEG-400 (polyethylene glycol 400), normal brine, heparin, acetonitrile, formic acid, and propranolol (internal standard) are commercially available.
(§4) Instrumentation: Thermo Fisher Scientific LC-MS (U300 UPLC, TSQ […] ULTRA triple quadrupole mass spectrometer).
(§5) The compound was weighed and dissolved in DMSO-PEG-400-physiological brine (5:60:35, v/v/v) system. After the rats/monkeys were administered intravenously or by gavage, 200 μL of venous blood was collected at 5 min (not collected when administered by gavage), 15 min, 30 min, 1 h, 2 h, 4 h, 6 h, 8 h, and 24 h in heparinized EP tubes, centrifuged at 12000 rpm for 2 min, and the plasma was frozen at −80° C. for testing. A certain amount of the test substance was precisely weighed and dissolved in DMSO to 1 mg/mL, which was used as a stock solution. An appropriate amount of compound stock solution was accurately pipetted and diluted with acetonitrile to prepare a standard series of solutions. 20 μL of each of the above standard series solutions were accurately pipetted, added with 180 μL of blank plasma, vortexed and mixed to prepare plasma samples equivalent to plasma concentrations of 1, 3, 10, 30, 100, 300, 1000, 3000 and 5000 ng/mL. Two-sample analysis was performed for each concentration to establish a standard curve. 20 μL of plasma was taken out, added with 200 μL of internal standard propranolol (5 ng/mL) in acetonitrile, vortexed and mixed. It was centrifuged at 4000 rpm for 5 min, and the supernatant was collected for LC-MS analysis. LC-MS detection conditions were as follows:
(§6) Chromatographic column: Thermo Scientific […] GOLD C-18 UPLC column, 100*2.1 mm, 1.9 μm.
(§7) Mobile phase: water (0.1% formic acid)-acetonitrile for gradient elution according to the table below.
(§8) After blood drug concentrations being detected by LC-MS, WinNonlin 6.1 software was used to calculate pharmacokinetic parameters by non-compartmental model method.

[1] = Beagle dog pharmacokinetics; type: in vivo; settings: for AUC / Cmax / Tmax / clearance / half-life / Vd: male, plasma; for Vd: read-out: Vss
Text: as §1, §2, §3, §4, §5, §6, §7, §8

[2] = Cynomolgus monkey pharmacokinetics; type: in vivo; parameters: AUC: concentration or dose not given beside the values
Text: as §1, §2, §3, §4, §5, §6, §7, §8

F (Rat pharmacokinetics; ig) [%] | AUC (Rat pharmacokinetics; iv) [ng·h/mL] | Cmax (Rat pharmacokinetics; iv) [ng/mL] | Tmax (Rat pharmacokinetics; iv) [h] | clearance (Rat pharmacokinetics; iv) [mL/min/kg] | half-life (Rat pharmacokinetics; iv) [h] | Vd (Rat pharmacokinetics; iv) [L/kg] | AUC (Rat pharmacokinetics; po, ig) [ng·h/mL] | Cmax (Rat pharmacokinetics; po, ig) [ng/mL] | Tmax (Rat pharmacokinetics; po, ig) [h] | half-life (Rat pharmacokinetics; po, ig) [h] | F ([1]; ig) [%] | AUC ([1]; iv) [ng·h/mL] | Cmax ([1]; iv) [ng/mL] | Tmax ([1]; iv) [h] | clearance ([1]; iv) [mL/min/kg] | half-life ([1]; iv) [h] | Vd ([1]; iv) [L/kg] | AUC ([1]; po, ig) [ng·h/mL] | Cmax ([1]; po, ig) [ng/mL] | Compound | other results
5.4 | 922 | 2200 | 0.083 | 23.5 | 1.65 | 0.741 | 788 | 242 | 0.333 | 3.77 | 49.6 | 756 | 2190 | 0.083 | 22.7 | 7.77 | 2.64 | 3770 | 1600 | CCC(=O)c1ccc(Cl)cc1-c1cc(=O)n([C@@H](Cc2ccccc2)C(=O)Nc2ccc(C(=O)O)cc2)nc1OC [Example 32] | Tmax ([1]; po, ig): 0.25 h; half-life ([1]; po, ig): 4.51 h
24.6 | 1020 | 2500 | 0.083 | 16.4 | 0.181 | 0.269 | 2510 | 768 | 1.25 | 2.52 | 65.5 | 1410 | 2580 | 0.083 | 11.8 | 4.2 | 0.8 | 9230 | 2320 | COc1nn([C@@H](Cc2ccccc2)C(=O)Nc2ccc(C(=O)O)cc2)c(=O)cc1-c1cc(Cl)ccc1C(C)=O [Example 19, (S)-4-(2-(4-(2-acetyl-5-chlorophenyl)-3-methoxy-6-oxopyridazin-1(6H)-yl)-3-phenylpropanamido)benzoic acid] | F ([2]; ig): 17.3%; AUC ([2]; male, plasma, iv): 1430 ng·h/mL; Cmax ([2]; male, plasma, iv): 2690 ng/mL; Tmax ([2]; male, plasma, iv): 0.083 h; clearance ([2]; male, plasma, iv): 12 mL/min/kg; half-life ([2]; male, plasma, iv): 2.83 h; Vd ([2]; male, plasma, iv, read-out: Vss): 0.65 L/kg; AUC ([2]; male, plasma, po, ig): 2480 ng·h/mL; Cmax ([2]; male, plasma, po, ig): 198 ng/mL; Tmax ([2]; male, plasma, po, ig): 2.5 h; half-life ([2]; male, plasma, po, ig): 7.07 h; Tmax ([1]; po, ig): 1.25 h; half-life ([1]; po, ig): 3.6 h

— patent publication US20230027295A1, “FXIA INHIBITORS AND PREPARATION METHOD THEREFOR AND PHARMACEUTICAL USE THEREOF” (Shenzhen Salubris Pharmaceuticals Co., Ltd., priority 2019, published 2023)
